# Measured values as given in patent publication US20240319200A1, “Covalent Molecular Glue Stabilizers and Platform” (The Regents of the University of California, priority 2021, published 2024).
# Columns and labels:
# [1] = test system: 14-3-3 SFN protein / ERα phosphopeptide substrate; assay: Fluorescence polarization, 14-3-3 SFN with ERα phosphopeptide substrate; format: binding; details: SFN with C38 and C96 mutated to serines
# Procedure: We performed a fluorescence polarization screen with our cysteine-reactive covalent ligand libraries to identify 14-3-3 covalent molecular glues that enhance interactions of SFN with phosphopeptide 14-3-3 interacting sequences ERα. This screen was performed with recombinant pure 14-3-3 SFN protein and a 5-FAM- or rhodamine-conjugated ERα phosphopeptide substrate looking for cysteine-reactive covalent ligands that would stabilize 14-3-3 interactions with the phosphopeptide substrate.
# [2] = test system: SFN / TAZ phosphopeptide substrate; assay: Fluorescence polarization, 14-3-3 SFN with TAZ phosphopeptide substrate; format: binding; details: SFN with C38 and C96 mutated to serines
# [3] = test system: ERα transcription factor luciferase reporter in T47D breast cancer cells; assay: ERα luciferase reporter activity; format: cell-based
# Description: (§1) […]. […] […]. […] […].
# [4] = test system: Hippo pathway transcription factor luciferase reporter in MCF7 breast cancer cells; assay: Hippo pathway transcription factor luciferase reporter activity; format: cell-based
# Description: as §1
# [5] = SFN knockdown, breast cancer cells
smiles,measurement,setting,value
C=CC(=O)N1CCC2(CCN(Cc3ccccc3)C2)C1 (stereo not drawn) [EN171],EN171-mediated stabilization of 14-3-3 interactions with ERα,[1],significantly attenuated
same,EN171-mediated stabilization of 14-3-3 interactions with TAZ,[2],significantly attenuated
same,EN171-mediated inhibition of ERα transcriptional activity,[3]; [5],significantly attenuated
same,Inhibition of ERα luciferase reporter activity,[3]; T47D breast cancer cells,dose-responsive inhibition
same,Inhibition of Hippo pathway transcription factor luciferase reporter activity,[4]; MCF7 breast cancer cells,dose-responsive inhibition
same,EN171-mediated inhibition of Hippo pathway transcriptional activity,[4]; [5],significantly attenuated
